Measurements reported in patent publication US20090053751A1, “Chemiluminescent Method and Device for Evaluating the In Vivo Functional State of Phagocytes” (priority 2005, published 2009).

Tested on: phagocytes
Experiment: Luminol-amplified chemiluminescence (CL) kinetics of zymosan-stimulated diluted whole blood
Assay type: cell-based, human
Method: Zymosan-A (Sigma Chemical Co.) was used as a phagocyte-stimulating agent. It was opsonized for 30 min at 37° C. in sample serum (20 mg/mL) and washed twice in 0.9% NaCl. The zymosan suspension in Krebs-Ringer phosphate medium (KRP) was prepared immediately prior to use. KRP was composed of 119 mmol/L NaCl, 4.75 mmol/L KCl, 0.420 mmol/L CaCl2, 1.19 mmol/L MgSO4.7H2O, 16.6 mmol/L sodium phosphate buffer, pH 7.4 and 5.56 mmol/L glucose (De Sole et al., 1983). Luminol (Sigma Chemical Co.) was used to amplify the chemiluminescence activity. A luminol stock solution (10 mmol/L in dimethyl sulfoxide) was stored in a dark place at room temperature and diluted 1:10 (v/v) with KRP just before use. In all experiments, the final concentration of luminol was 100 μmol/L. In some experiments formylmethionyl-leucyl-phenylalanine (fMLP—Sigma Chemical Co.) was used for priming (5 nM) of CL emitting cells. All reagents used were of analytical grade and the water was glass-distilled.
Diluted whole blood (1:100 v/v final dilution) was used to avoid artifacts due to the isolation of PMNs. Peripheral venous blood from human adults was collected in heparinized tubes (20 U/mL). Samples with a total volume of 200 μL contained diluted whole fresh blood, luminol and zymosan in KRP. […] After diluted blood was added, the sample content was mixed and CL measured. […]

Structure (SMILES)	phagocytosis-related parts of the CL response (diluted whole blood preincubated at 37° C. for 5 minutes with 1.5 mmol/liter of aspirin, FIG. 6A)	relative contribution of extracellularly and intracellularly produced ROS (derived kinetic parameters) (diluted whole blood preincubated at 37° C. for 5 minutes with 3 nmol/liter fMLP, FIG. 2)
CC(=O)Oc1ccccc1C(=O)O [aspirin]	significant decrease	–
CSCC[C@H](NC=O)C(=O)N[C@@H](CC(C)C)C(=O)N[C@@H](Cc1ccccc1)C(=O)O [fMLP, N-formylmethionyl leucyl phenylalanine]	–	more significant for the extracellular ROS production
